Assay results: patent US20160176867A1, “MODIFIED BET-PROTEIN-INHIBITING DIHYDROQUINOXALINONES AND DIHYDROPYRIDOPYRAZINONES” (BAYER PHARMA AKTIENGESELLSCHAFT, priority 2013, published 2016)

Columns and labels:
[1] = molecular target: T1, BRD4 bromo domain 1 [BRD4(1)] (Homo sapiens, UniProt O60885); assay: BRD4/acetylated peptide H4 binding assay (TR-FRET), BRD4 bromo domain 1; details: inhibition of BRD4(1)/Ac-H4 peptide interaction
T1 construct: N-terminally His6-tagged BRD4(1) (amino acids 67-152); made in house; host or cells: E. coli
Text: (§1) Protein-Protein Interaction Assay: BRD4/Acetylated Peptide H4 Binding Assay
To assess the BRD4(1) binding strength of the substances described in this application, the ability thereof to inhibit the interaction between BRD4(1) and acetylated histone H4 in a dose-dependent manner was quantified.
(§2) For this purpose, a time-resolved fluorescence resonance energy transfer (TR-FRET) assay was used, which measures the binding between N-terminally His6-tagged BRD4(1) (amino acids 67-152) and a synthetic acetylated histone H4 (Ac-H4) peptide with sequence GRGK(Ac)GGK(Ac)GLGK(Ac)GGAK(Ac)RHGSGSK-biotin. The recombinant BRD4(1) protein produced in-house according to Filippakopoulos et al., Nature, 2010, 468:1119-1123 and Cell, 2012, 149:214-231, was expressed in E. coli and purified by means of (Ni-NTA) affinity and (Sephadex G-75) size exclusion chromatography. The Ac-H4 peptide can be purchased, for example, from Biosyntan (Berlin, Germany).
(§3) In the assay, typically 11 different concentrations of each substance (0.1 nM, 0.33 nM, 1.1 nM, 3.8 nM, 13 nM, 44 nM, 0.15 μM, 0.51 μM, 1.7 μM, 5.9 μM and 20 μM) were analysed as duplicates on the same microtitre plate. For this purpose, 100-fold concentrated solutions in DMSO were prepared by serial dilutions (1:3.4) of a 2 mM stock solution into a clear, 384-well microtitre plate (Greiner Bio-One, Frickenhausen, Germany). From this, 50 nl were transferred into a black test plate (Greiner Bio-One, Frickenhausen, Germany). The test was started by the addition of 2 μl of a 2.5-fold concentrated BRD4(1) solution (final concentration typically 10 nM in the 5 μl of reaction volume) in aqueous assay buffer [50 mM HEPES pH 7.5, 50 mM sodium chloride (NaCl), 0.25 mM CHAPS and 0.05% serum albumin (BSA)] to the substances in the test plate. This was followed by a 10-minute incubation step at 22° C. for the pre-equilibration of putative complexes between BRD4(1) and the substances.
(§4) The mixture was then incubated in the dark at 22° C. for one hour and then at 4° C. for at least 3 hours and for no longer than overnight. The formation of BRD4(1)/Ac-H4 complexes was determined by the measurement of the resonance energy transfer from the streptavidin-Eu cryptate to the anti-6His-XL665 antibody present in the reaction. For this purpose, the fluorescence emission was measured at 620 nm and 665 nm after excitation at 330-350 nm in a TR-FRET measuring instrument, for example a Rubystar or Pherastar (both from BMG Lab Technologies, Offenburg, Germany) or a Viewlux (Perkin-Elmer). The ratio of the emissions at 665 nm and at 622 nm was taken as an indicator of the amount of BRD4(1)/Ac-H4 complexes formed.
(§5) The data (ratios) obtained were normalized, with 0% inhibition corresponding to the mean from the measurements for a set of controls (typically 32 data points) in which all the reagents were present. In these, in place of test substances, 50 nl of DMSO (100%) were used. Inhibition of 100% corresponded to the mean from the measurements for a set of controls (typically 32 data points) in which all the reagents except BRD4(1) were present. The IC50 was determined by regression analysis based on a 4-parameter equation (minimum, maximum, IC50, Hill; Y=max+(min−max)/(1+(X/IC50)Hill)).

[2] = molecular target: T2, BRD4 bromo domain 2 [BRD4(2)] (Homo sapiens, UniProt O60885); assay: BRD4/acetylated peptide H4 binding assay (TR-FRET), BRD4 bromo domain 2; details: inhibition of BRD4(2)/Ac-H4 peptide interaction
T2 construct: N-terminally His6-tagged BRD4(2) (amino acids 357-445); made in house; host or cells: E. coli
Text: as §1
To assess the BRD4(2) binding strength of the substances described in this application, the ability thereof to inhibit the interaction between BRD4(2) and acetylated histone H4 in a dose-dependent manner was quantified.
as §2, with “BRD4(2)” for “BRD4(1)”, “357-445)” for “67-152)”, “SGRGK(Ac)GGK(Ac)GLGK(Ac)GGAK(Ac)RHRKVLRDNGSGSK-biotin.” for “GRGK(Ac)GGK(Ac)GLGK(Ac)GGAK(Ac)RHGSGSK-biotin.”
as §3, with “concentrated BRD4(2)” for “concentrated BRD4(1)”, “typically 100” for “typically 10”, “chloride (NaCl); 50 mM potassium fluoride (KF);” for “chloride (NaCl),”, “between BRD4(2)” for “between BRD4(1)”, “substances. Subsequently, 3 μl of a 1.67-fold concentrated solution (in assay buffer) consisting of Ac-H4 peptide (83.5 nM) and TR-FRET detection reagents [83.5 nM anti-6His-XL665 (Cisbio Bioassays, Codolet, France) and 12.52 nM streptavidin-Eu), (Perkin Elmer, #W1024)] in assay buffer were added.” for “substances.”
as §4, with “BRD4(2)/Ac-H4” for “BRD4(1)/Ac-H4”, “chelate” for “cryptate”
as §5, with “BRD4(2)” for “BRD4(1)”

| Structure (SMILES) | IC50 [1] | IC50 [2] |
| --- | --- | --- |
| CC(C)N1CCN(C(=O)c2cccc(Nc3ccc4c(n3)N(C3CCCCC3)[C@H](C)C(=O)N4C)c2)CC1 [Example 85] | 314 nM | 189 nM |
| C[C@@H]1C(=O)N(C)c2ccc(Nc3cccc(S(=O)(=O)N4CCN(CC(F)(F)F)CC4)c3)nc2N1C1CCN(C(=O)OC(C)(C)C)CC1 [Example 66, tert-butyl 4-[(3R)-1,3-dimethyl-2-oxo-6-[(3-{[4-(2,2,2-trifIuoroethyl)-piperazin-1-yl]sulphonyl}-phenl)amino]-2,3-dihydropyrido[2,3-b]pyrazin-4(1H)-yl]piperidine-1-carboxylate] | 1110 nM | 308 nM |
| C[C@@H]1C(=O)N(C)c2ccc(Nc3cccc(S(=O)(=O)N(C)C)c3)cc2N1Cc1ccccc1 [Example 69, 3-{[(3R)-4-benzyl-1,3-dimethyl-2-oxo-1,2,3,4-tetrahydroquinoxalin-6-yl]amino}-N,N-dimethyl-benzenesulphonamide] | 496 nM | 63 nM |
| C[C@@H]1C(=O)N(C)c2ccc(N(C)c3cccc(S(=O)(=O)N(C)C)c3)cc2N1C1CCN(C(=O)OC(C)(C)C)CC1 [Example 70, tert-butyl 4-[(2R)-7-{[3-(dimethylsulphamoyl)-phenyl](methyl)amino}-2,4-dimethyl-3-oxo-3,4-dihydroquinoxalin-1(2H)-yl]piperidine-1-carboxylate] | 749 nM | 384 nM |
| COc1ccc(CN2c3cc(Nc4cccc(S(=O)(=O)N5CCOCC5)c4)ccc3N(C)C(=O)[C@H]2C)cc1 [Example 11, (3R)-4-(4-Methoxybenzyl)-1,3-dimethyl-6-{[3-(morpholin-4-ylsulphonyl)phenyl]amino}-3,4-dihydroquinoxalin-2(1H)-one] | 208 nM | 48 nM |
| Cc1cccc(N2c3nc(Nc4cccc(S(=O)(=O)N5CCOCC5)c4)ccc3N(C)C(=O)C2C)c1 (stereo not shown) [Example 64, 1,3-dimethyl-4-(3-methylphenyl)-6-{[3-(morpholin-4-ylsulphonyl)phenyl]-amino}-3,4-dihydropyrido[2,3-b]pyrazin-2(1H)-one] | 271 nM | 197 nM |
| COCCN1c2nc(Nc3cccc(C(=O)NC4CCN(C)CC4)c3)ccc2N(C)C(=O)C1C (racemic) [Example 98, 3-{[4-(2-methoxyethyl)-1,3-dimethyl-2-oxo-1,2,3,4-tetrahydropyrido[2,3-b]pyrazin-6-yl]amino}-N-(1-methylpiperidin-4-yl)benzamide] | 531 nM | 216 nM |
| C[C@@H]1C(=O)N(C)c2ccc(Nc3cccc(C(=O)N(C)C)c3)cc2N1C1CCN(C(=O)OC(C)(C)C)CC1 [Example 105, tert-butyl 4-[(2R)-7-{[3-(dimethylcarbamoyl)phenyl]amino}-2,4-dimethyl-3-oxo-3,4-dihydroquinoxalin-1(2H)-yl]piperidine-1-carboxylate] | 208 nM | 598 nM |
| C[C@@H]1C(=O)N(C)c2ccc(Nc3cccc(C(=O)N4CCN(C)CC4)c3)nc2N1C1CCN(C(=O)OC(C)(C)C)CC1 [Example 78, tert-butyl 4-[(3R)-1,3-dimethyl-6-({3-[(4-methylpiperazin-1-yl)carbonyl]phenyl}-amino)-2-oxo-2,3-dihydropyrido[2,3-b]pyrazin-4(1H)-yl]piperidine-1-carboxylate] | 151 nM | 157 nM |
| COc1ccc(C(=O)N[C@H]2CC[C@H](N3CCN(CC4CC4)CC3)CC2)cc1Nc1ccc2c(n1)N(C1CCOCC1)[C@H](C)C(=O)N2C [Example 18, N-{trans-4-[4-(Cyclopropylmethyl)piperazin-1-yl]cyclohexyl}-3-{[(3R)-1,3-dimethyl-2-oxo-4-(tetrahydro-2H-pyran-4-yl)-1,2,3,4-tetrahydropyrido[2,3-b]pyrazin-6-yl]amino}-4-methoxybenzamide] | 149 nM |  |
| COc1ccc(C(=O)N[C@H]2CC[C@H](N3CCN(CC4CC4)CC3)CC2)cc1Nc1ccc2c(n1)N(C1CCOCC1)[C@H](C)C(=O)N2C [Example 87, N-{trans-4-[4-(cyclo-propylmethyl)piperazin-1-yl]cyclohexyl}-3-{[(3R)-1,3-dimethyl-2-oxo-4-(tetrahydro-2H-pyran-4-yl)-1,2,3,4-tetrahydropyrido[2,3-b]pyrazin-6-yl]amino}-4-methoxybenzamide] | 351 nM |  |
| CC(C)NS(=O)(=O)c1cccc(Nc2ccc3c(n2)N(C2CCOCC2)[C@H](C)C(=O)N3C)c1 [Example 42, 3-{[(3R)-1,3-dimethyl-2-oxo-4-(tetrahydro-2H-pyran-4-yl)-1,2,3,4-tetrahydropyrido[2,3-b]pyrazin-6-yl]amino}-N-isopropylbenzene-sulphonamide] | 36 nM |  |
| C[C@@H]1C(=O)N(C)c2ccc(Nc3cccc(S(=O)(=O)N4CC(F)(F)C4)c3)nc2N1C1CCOCC1 [Example 31, (3R)-6-({3-[(3,3-Difluoroazetidin-1-yl)sulphonyl]phenyl}amino)-1,3-dimethyl-4-(tetrahydro-2H-pyran-4-yl)-3,4-dihydropyrido[2,3-b]pyrazin-2(1H)-one] | 40 nM |  |
